The values that follow come from ChEMBL document CHEMBL4834490, “Novel Bromodomain Inhibitors for Treating Cancer, Fibrosis, and Inflammatory Disorders” (ACS Med Chem Lett, 2021).

SMILES strings stand for the structures. Some results are limits rather than exact numbers.

One may read the IC50 as the midpoint of a concentration-inhibition curve. The term Kd denotes the concentration at which binding is half-saturated.

Assay [1] concerns the target T1, Bromodomain-containing protein 4 (Homo sapiens, UniProt O60885). As to the kind of experiment: Inhibition of binding of N-terminal His-tagged human full length recombinant BRD4 (2 to 1362 residues) expressed in baculovirus-infected Sf9 cells with acetylated histone H4 peptide (1 to 21) preincubated for 30 mins followed by H4 ligand addition and measured after 30 mins AlphaScreen assay.

The target in assay [2] is T1, Bromodomain-containing protein 4. As to the kind of experiment: Binding affinity to DNA-tagged human BRD4 (BD1,2) isoform long expressed in Escherichia coli BL21 incubated for 1 hr by competitive ligand binding BROMOscan assay.

For `Cc1cc(-c2ccc3nc(-c4cnn(CC(C)(C)O)c4)nc(N4CCOC[C@@H]4c4ccccc4)c3c2)cn(C)c1=O`, the IC50 in assay [1] was less than 0.1 µM. Further, the Kd in assay [2] was less than 0.1 µM.
Take `Cc1cc(-c2ccc3nc(-c4cnn(CC(C)(C)O)c4)nc(N4CCOC[C@@H]4C4CC4)c3c2)cn(C)c1=O`: the IC50 in assay [1] turned out to be 0.1 µM. Moreover, in assay [2], the Kd was less than 0.1 µM.
With `Cc1cc(-c2ccc3nc(-c4cnn(CC(C)(C)O)c4)nc(N4CCOC[C@@H]4c4ccc(F)cc4)c3c2)cn(C)c1=O`, the IC50 in assay [1] was less than 0.1 µM. In assay [2], the Kd was less than 0.1 µM.
Regarding `Cn1cc(-c2ccc3nc(-c4cnn(CC(C)(C)O)c4)nc(N4CCOC[C@@H]4c4ccc(F)cc4)c3c2)c2cc[nH]c2c1=O`, in assay [1], the IC50 is less than 0.1 µM. In assay [2], this compound registered a Kd of less than 0.1 µM.
Regarding `Cn1cc(-c2ccc3nc(-c4cnn(CC(C)(C)O)c4)nc(N4CCOC[C@@H]4c4ccccc4)c3c2)c2cc[nH]c2c1=O`, the IC50 in assay [1] is less than 0.1 µM. Further, the Kd in assay [2] is less than 0.1 µM.
As for `Cn1cc(-c2ccc3nc(-c4cnn(CC(C)(C)O)c4)nc(N4CCOC[C@@H]4C4CC4)c3c2)c2cc[nH]c2c1=O`, in assay [1], the IC50 was less than 0.1 µM. The same compound had a Kd in assay [2] of less than 0.1 µM.
